By Ki is commonly meant the equilibrium dissociation constant of an inhibitor or competing ligand from its target. In general, IC50 refers to the concentration that inhibits the measured activity by half. High values mean weaker potency, low ones greater potency.

For assay [1], the target named is T1, D(2) dopamine receptor (Homo sapiens, UniProt P14416). As to the kind of experiment: Displacement of [3H]N-methylspiperone from human D2 receptor expressed in HEK cells. In kind it is cell-based, HEK293. On the technique in general: Loss of bound radioactivity is the signal in a displacement assay; it reports binding, not function.
T1 sequence (P14416 whole entry): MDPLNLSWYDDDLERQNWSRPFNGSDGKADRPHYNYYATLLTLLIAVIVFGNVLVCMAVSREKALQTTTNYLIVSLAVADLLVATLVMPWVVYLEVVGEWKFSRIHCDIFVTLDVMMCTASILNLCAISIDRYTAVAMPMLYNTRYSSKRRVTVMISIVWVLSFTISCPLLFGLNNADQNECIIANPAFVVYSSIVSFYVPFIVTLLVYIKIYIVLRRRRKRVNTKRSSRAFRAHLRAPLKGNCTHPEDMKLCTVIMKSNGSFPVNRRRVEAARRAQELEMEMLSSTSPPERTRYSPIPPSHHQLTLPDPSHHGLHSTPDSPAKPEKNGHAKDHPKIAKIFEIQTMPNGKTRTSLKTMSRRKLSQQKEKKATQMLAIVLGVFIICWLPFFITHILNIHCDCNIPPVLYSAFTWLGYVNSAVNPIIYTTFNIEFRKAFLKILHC
Assay [2] addresses T1, D(2) dopamine receptor. As to the kind of experiment: Displacement of [3H]N-methylspiperone from human D2 receptor expressed in HEK cells at 10 uM. In kind it is cell-based. As to conditions: HEK293.
Another assay concerns the target D(1A) dopamine receptor (Homo sapiens, UniProt P21728). As to the kind of experiment: Displacement of [3H][…] from human D1 receptor expressed in HEK cells. In kind it is cell-based, HEK293.
The species named for a further assay is Rattus norvegicus. The assay is described as follows: Ratio of Ki for rat sigma 2 receptor to Ki for rat sigma 1 receptor.
A short description of assay [3]: Displacement of [3H]DTG from sigma 2 receptor in rat brain homogenate. In kind it is tissue-based.
Assay [4] has as its target Sigma non-opioid intracellular receptor 1 (Rattus norvegicus, UniProt Q9R0C9). The assay is described as follows: Displacement of [3H](+)-pentazocine from sigma 1 receptor in rat brain homogenate. It counts as tissue-based.
For assay [5], the target named is T2, D(3) dopamine receptor (Homo sapiens, UniProt P35462). The assay is described as follows: Displacement of [3H]N-methylspiperone from human D3 receptor expressed in HEK cells at 10 uM. It counts as cell-based. Particulars: HEK293.
T2 sequence (P35462 whole entry): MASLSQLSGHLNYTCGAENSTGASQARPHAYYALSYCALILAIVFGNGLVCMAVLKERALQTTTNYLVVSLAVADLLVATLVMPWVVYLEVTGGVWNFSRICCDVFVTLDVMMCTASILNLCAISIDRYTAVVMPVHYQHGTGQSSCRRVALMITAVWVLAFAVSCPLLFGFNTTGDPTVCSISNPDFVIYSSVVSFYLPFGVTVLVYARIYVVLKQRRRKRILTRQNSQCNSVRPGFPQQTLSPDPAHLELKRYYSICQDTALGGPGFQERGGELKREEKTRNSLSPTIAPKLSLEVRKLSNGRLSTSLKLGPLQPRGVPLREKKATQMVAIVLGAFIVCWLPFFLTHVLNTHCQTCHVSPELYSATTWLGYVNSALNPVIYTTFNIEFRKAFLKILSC
For assay [6], the target named is T2, D(3) dopamine receptor. The assay is described as follows: Displacement of [3H]N-methylspiperone from human D3 receptor expressed in HEK cells. It counts as cell-based, HEK293.
The next assay addresses T3, D(4) dopamine receptor (Homo sapiens, UniProt P21917).
T3 sequence (P21917 whole entry): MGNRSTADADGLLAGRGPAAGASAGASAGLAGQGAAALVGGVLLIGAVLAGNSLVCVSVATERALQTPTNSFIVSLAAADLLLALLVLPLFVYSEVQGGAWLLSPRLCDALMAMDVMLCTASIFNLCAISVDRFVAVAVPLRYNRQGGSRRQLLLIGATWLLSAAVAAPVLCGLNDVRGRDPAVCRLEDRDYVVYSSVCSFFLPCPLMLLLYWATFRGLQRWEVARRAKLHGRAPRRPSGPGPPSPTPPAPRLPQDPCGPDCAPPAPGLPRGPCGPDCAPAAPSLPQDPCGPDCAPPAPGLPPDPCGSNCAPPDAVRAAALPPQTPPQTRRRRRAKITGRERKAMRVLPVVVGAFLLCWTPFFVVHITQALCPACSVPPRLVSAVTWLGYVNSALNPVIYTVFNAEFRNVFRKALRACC
As to the kind of experiment: Displacement of [3H]N-methylspiperone from human D4 receptor expressed in HEK cells. In kind it is cell-based, HEK293.

The target of a further assay is D(1B) dopamine receptor (Homo sapiens, UniProt P21918). As to the kind of experiment: Displacement of [3H][…] from human D5 receptor expressed in HEK cells. In kind it is cell-based, HEK293.
D(1B) dopamine receptor, sequence (P21918 whole entry): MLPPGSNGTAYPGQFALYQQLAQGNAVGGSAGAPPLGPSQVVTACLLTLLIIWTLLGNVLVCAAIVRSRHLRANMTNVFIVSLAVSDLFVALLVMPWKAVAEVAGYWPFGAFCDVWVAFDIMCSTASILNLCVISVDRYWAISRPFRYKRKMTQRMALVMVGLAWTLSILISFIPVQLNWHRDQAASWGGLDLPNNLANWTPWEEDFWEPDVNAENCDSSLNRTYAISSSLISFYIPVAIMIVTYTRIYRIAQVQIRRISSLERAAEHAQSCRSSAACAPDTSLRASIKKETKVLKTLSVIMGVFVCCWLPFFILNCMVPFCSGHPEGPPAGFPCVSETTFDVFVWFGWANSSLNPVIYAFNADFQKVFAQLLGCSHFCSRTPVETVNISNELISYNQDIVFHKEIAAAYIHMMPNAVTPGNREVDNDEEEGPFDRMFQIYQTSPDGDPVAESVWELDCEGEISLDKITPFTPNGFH

SMILES strings stand for the structures.

Sigma non-opioid intracellular receptor 1, sequence (Q9R0C9 whole entry): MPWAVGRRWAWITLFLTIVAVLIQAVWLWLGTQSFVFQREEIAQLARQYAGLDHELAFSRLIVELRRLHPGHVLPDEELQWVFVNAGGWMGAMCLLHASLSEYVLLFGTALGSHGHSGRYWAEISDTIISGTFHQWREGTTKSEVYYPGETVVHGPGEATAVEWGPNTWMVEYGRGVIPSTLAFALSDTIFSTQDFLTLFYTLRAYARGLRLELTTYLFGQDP
D(1A) dopamine receptor, sequence (P21728 whole entry): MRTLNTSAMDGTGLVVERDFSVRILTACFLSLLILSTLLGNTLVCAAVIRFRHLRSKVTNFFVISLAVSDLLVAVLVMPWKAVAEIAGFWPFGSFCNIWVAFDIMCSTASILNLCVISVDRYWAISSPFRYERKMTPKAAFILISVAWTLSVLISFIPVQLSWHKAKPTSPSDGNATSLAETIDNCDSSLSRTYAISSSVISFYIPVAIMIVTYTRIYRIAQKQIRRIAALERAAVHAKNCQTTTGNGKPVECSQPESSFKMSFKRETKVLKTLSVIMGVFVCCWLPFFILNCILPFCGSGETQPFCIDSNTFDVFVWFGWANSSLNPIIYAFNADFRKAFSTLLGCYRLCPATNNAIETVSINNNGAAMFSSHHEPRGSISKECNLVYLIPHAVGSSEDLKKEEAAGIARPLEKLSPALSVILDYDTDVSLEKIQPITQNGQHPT

Regarding `COc1ccc(CCN2C3C4C5CC6C7C5C3C7C2(O)C64)cc1OCCc1ccccc1` (stereo not given), the Ki at D(2) dopamine receptor [1] is > 10000 nM; at D(1A) dopamine receptor, > 10000 nM; in [3], 93 nM; in [4], 20 nM. Also, the Activity at D(2) dopamine receptor [2] was < 50%. The Ratio Ki in the assay listed under Rattus norvegicus came to 4.7.
For the molecule `CCCN(CCC)CCc1ccc(OC)c(OCCc2ccccc2)c1`, the IC50 at D(2) dopamine receptor [1] and on D(1A) dopamine receptor was > 10000 nM in each case. In assay [3], this molecule came in with a Ki of 212 nM.
As to `COc1ccc(C)cc1C(=O)NCCN1C2C3C4CC5C6C4C2C6C1(O)C53` (stereo not given), the inhibitory constant (Ki) at D(2) dopamine receptor [1] was > 10000 nM; in [3] it was 225 nM; in [4], 7.6 nM; at D(3) dopamine receptor [6] it was > 10000 nM. In addition, the Activity on D(2) dopamine receptor [2] and on D(3) dopamine receptor [5] was < 50% in each case. In addition, in the assay listed under Rattus norvegicus, the Ratio Ki worked out at 30.
For the molecule `COc1cc2c(cc1OC)CN(CCNC(=O)c1cc(C)ccc1OC)CC2`, the Ki in assay [3] came out at 13.3 nM.
With `O=C(CCCN1C2C3C4CC5C6C4C2C6C1(O)C53)c1ccc(F)cc1` (stereo not given), the inhibition constant (Ki) is 1720 nM on D(2) dopamine receptor [1]; 209 nM on D(1A) dopamine receptor; 55 nM in [3]; 27 nM in assay [4]; 93 nM on D(4) dopamine receptor; > 10000 nM at D(1B) dopamine receptor. Further, the affinity on D(3) dopamine receptor [6] corresponds to a Ki of 1960 nM.
In the case of `O=C(CCCN1CCC(O)(c2ccc(Cl)cc2)CC1)c1ccc(F)cc1` [HALOPERIDOL], the Ki in assay [3] was determined as 7.93 nM.

The values above are taken from ChEMBL document CHEMBL1777734, “Molecular hybridization of 4-azahexacyclo[5.4.1.0(2,6).0(3,10).0(5,9).0(8,11)]dodecane-3-ol with sigma (σ) receptor ligands modulates off-target activity and subtype selectivity” (Bioorg Med Chem Lett, 2011).
